Consider nine molecules from PubChem BioAssay AID1259407 (Chemical Carcinogenesis Research Information System (CCRIS), 2018).

Active and inactive are the calls of the source. The rule behind the calls is not given here.

This series deals with CCRIS mutagenicity, Ames/micronucleus/aberration tests. The experiment in a line: CCRIS mutagenicity studies.
The mark [1] stands for this setting: Test System: AMES SALMONELLA TYPHIMURIUM, Strain/Indicator: TA98, Metabolic Activation: NONE, Method: STANDARD PLATE.
Where [2] appears, read: Test System: AMES SALMONELLA TYPHIMURIUM, Strain/Indicator: TA98, Metabolic Activation: RAT, LIVER, S-9, AROCLOR 1254, Method: STANDARD PLATE.
Setting [3] is: Test System: AMES SALMONELLA TYPHIMURIUM, Strain/Indicator: TA100, Metabolic Activation: NONE, Method: STANDARD PLATE.
Setting [4] is: Test System: AMES SALMONELLA TYPHIMURIUM, Strain/Indicator: TA1538, Metabolic Activation: NONE, Method: STANDARD PLATE.
[5] abbreviates: Test System: AMES SALMONELLA TYPHIMURIUM, Strain/Indicator: TA1537, Metabolic Activation: NONE, Method: STANDARD PLATE.
[6] abbreviates: Test System: AMES SALMONELLA TYPHIMURIUM, Strain/Indicator: TA98, Metabolic Activation: NONE, Method: PREINCUBATION

Take `CC[C@@]1(O)C[C@H](O)c2c(cc3c(c2O)C(=O)c2c(O)cccc2C3=O)[C@H]1C(=O)OC`: the mutagenic call is, setting by setting: under setting [1], “active; positive”; under setting [2], “active; positive”; under setting [3], “inactive; negative”; under setting [4], “inactive; negative”.

For the molecule `CN(C)CCNC(=O)c1cccn2cc(-c3ccccc3)nc12`, the mutagenic call under setting [5] is “active; positive”.

On to `N#C/C(=C/C=C/c1ccccc1)c1ccccc1Cl`, for which the mutagenic call under setting [3] is “active; positive”.

`c1ccc(COc2cccc3cccnc23)cc1`: under “Test System: AMES SALMONELLA TYPHIMURIUM, Strain/Indicator: TA100, Metabolic Activation: S-9, Method: PREINCUBATION”, the mutagenic call is “inactive; negative”.

As for `CCOC(=O)[C@H](CCc1ccccc1)N[C@@H](C)C(=O)N1[C@H](C(=O)O)C[C@H]2CCCC[C@@H]21`, the mutagenic call reads like this: under setting [6], “inactive; negative”; (Test System: AMES SALMONELLA TYPHIMURIUM, Strain/Indicator: TA98, Metabolic Activation: RAT, LIVER, S-9, PHENOBARBITAL AND 5,6-BENZOFLAVONE, Method: PREINCUBATION) “inactive; negative”; (Test System: AMES SALMONELLA TYPHIMURIUM, Strain/Indicator: TA100, Metabolic Activation: NONE, Method: PREINCUBATION) “inactive; negative”; (Test System: AMES SALMONELLA TYPHIMURIUM, Strain/Indicator: TA100, Metabolic Activation: RAT, LIVER, S-9, PHENOBARBITAL AND 5,6-BENZOFLAVONE, Method: PREINCUBATION) “inactive; negative”; (Test System: AMES SALMONELLA TYPHIMURIUM, Strain/Indicator: TA1535, Metabolic Activation: NONE, Method: PREINCUBATION) “inactive; negative”; (Test System: AMES SALMONELLA TYPHIMURIUM, Strain/Indicator: TA1535, Metabolic Activation: RAT, LIVER, S-9, PHENOBARBITAL AND 5,6-BENZOFLAVONE, Method: PREINCUBATION) “inactive; negative”. Moreover, the mutagenic call (Test System: AMES SALMONELLA TYPHIMURIUM, Strain/Indicator: TA1537, Metabolic Activation: NONE, Method: PREINCUBATION) was “inactive; negative”; the mutagenic call (Test System: AMES SALMONELLA TYPHIMURIUM, Strain/Indicator: TA1537, Metabolic Activation: RAT, LIVER, S-9, PHENOBARBITAL AND 5,6-BENZOFLAVONE, Method: PREINCUBATION) was “inactive; negative”; the mutagenic call (Test System: E. COLI, Strain/Indicator: WP2 UVRA, Metabolic Activation: NONE, Method: PREINCUBATION) was “inactive; negative”; the mutagenic call (Test System: E. COLI, Strain/Indicator: WP2 UVRA, Metabolic Activation: RAT, LIVER, S-9, PHENOBARBITAL AND 5,6-BENZOFLAVONE, Method: PREINCUBATION) was “inactive; negative”.

With `c1ccc2c(c1)ccc1cc3ccc4ccccc4c3nc12`, the mutagenic call (Test System: AMES SALMONELLA TYPHIMURIUM, Strain/Indicator: TA100, Metabolic Activation: RAT, LIVER, S-9, PHENOBARBITAL AND 5,6-BENZOFLAVONE, Method: STANDARD PLATE) is “active; positive”.

As for `COc1cccc2c1C(=O)c1c(O)c3c(c(O)c1C2=O)C[C@@](O)(C(=O)CO)C[C@@H]3O[C@H]1C[C@H](N)[C@H](OC)[C@H](C)O1`, the mutagenic call (Test System: AMES SALMONELLA TYPHIMURIUM, Strain/Indicator: GW257, Metabolic Activation: NONE, Method: STANDARD PLATE) was “active; positive”; the mutagenic call (Test System: AMES SALMONELLA TYPHIMURIUM, Strain/Indicator: TA97, Metabolic Activation: NONE, Method: STANDARD PLATE) is “active; positive”; the mutagenic call under setting [6] was “active; positive”; the mutagenic call under setting [1] is “active; positive”; the mutagenic call under setting [3] is “active; positive”; the mutagenic call (Test System: AMES SALMONELLA TYPHIMURIUM, Strain/Indicator: TA104, Metabolic Activation: NONE, Method: STANDARD PLATE) is “active; positive”. Further, the mutagenic call is “active; positive” under setting [4] and “active; positive” (Test System: AMES SALMONELLA TYPHIMURIUM, Strain/Indicator: TA2637, Metabolic Activation: NONE, Method: STANDARD PLATE).

Regarding `COc1cc(/C=C/C(=O)O[C@H]2CC[C@]34C[C@]35CC[C@]3(C)[C@@H]([C@H](C)CCC=C(C)C)CC[C@@]3(C)[C@@H]5CC[C@H]4C2(C)C)ccc1O`, the mutagenic call is, setting by setting: under setting [1], “inactive; negative”; (Test System: AMES SALMONELLA TYPHIMURIUM, Strain/Indicator: TA98, Metabolic Activation: S9, Method: STANDARD PLATE) “inactive; negative”; under setting [3], “inactive; negative”; (Test System: AMES SALMONELLA TYPHIMURIUM, Strain/Indicator: TA100, Metabolic Activation: S9, Method: STANDARD PLATE) “inactive; negative”; (Test System: AMES SALMONELLA TYPHIMURIUM, Strain/Indicator: TA1535, Metabolic Activation: NONE, Method: STANDARD PLATE) “inactive; negative”; (Test System: AMES SALMONELLA TYPHIMURIUM, Strain/Indicator: TA1535, Metabolic Activation: S9, Method: STANDARD PLATE) “inactive; negative”. Also, the mutagenic call under setting [5] is “inactive; negative”; the mutagenic call (Test System: AMES SALMONELLA TYPHIMURIUM, Strain/Indicator: TA1537, Metabolic Activation: S9, Method: STANDARD PLATE) is “inactive; negative”; the mutagenic call (Test System: E.COLI, Strain/Indicator: WP2 UVRA, Metabolic Activation: NONE, Method: STANDARD PLATE) is “inactive; negative”; the mutagenic call (Test System: E.COLI, Strain/Indicator: WP2 UVRA, Metabolic Activation: S9, Method: STANDARD PLATE) was “inactive; negative”.

For the molecule `C=C(C)C1C=C2C(COC(=O)CCCCCCCCCCCCCCCCC)=CC=C2C(C)=CC1` (stereo not given), the mutagenic call by setting is: under setting [1], “inactive; negative”; under setting [2], “inactive; negative”; under setting [3], “active; positive”; (Test System: AMES SALMONELLA TYPHIMURIUM, Strain/Indicator: TA100, Metabolic Activation: RAT, LIVER, S-9, AROCLOR 1254, Method: STANDARD PLATE) “active; positive”.
